This test has as its target T1, Cyclophilin D (CypD; rhCypD) (Homo sapiens, UniProt P30405).
T1 construct: gene PPIF; amino acids 44 to 207 of full length human CypD, C-terminal His-tag
Nature of the test: HTRF/TR-FRET displacement of CsA-d2 from His-tagged rhCypD; also inhibits PPIase activity (IC50 […]). It counts as binding. (Time-resolved FRET reads energy transfer from a long-lived donor to a nearby acceptor.)

T1 sequence (P30405 44-207): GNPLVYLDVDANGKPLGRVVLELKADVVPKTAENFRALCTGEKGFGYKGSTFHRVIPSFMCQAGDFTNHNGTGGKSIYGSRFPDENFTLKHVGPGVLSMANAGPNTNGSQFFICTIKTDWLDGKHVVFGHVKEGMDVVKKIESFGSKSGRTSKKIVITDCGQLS

In general, IC50 refers to the concentration that inhibits the measured activity by half. Low readings indicate greater potency, high ones weaker potency. In turn, `CC[C@H]1C[C@H](C)[C@@]2(NC1=O)O[C@@H](C[C@H](O)[C@@H](C)CC/C=C/C=C(\C)[C@@H]1C/C=C/C=C/[C@H](O)[C@H](C)[C@@H](O)[C@@H](CCC(C)=O)C(=O)N[C@@H](C(C)C)C(=O)N[C@@H](Cc3cccc(O)c3)C(=O)N3CCC[C@H](N3)C(=O)O1)[C@H](C)[C@H](O)[C@@H]2C` [SfA, sanglifehrin A] showed a 50% inhibitory concentration (IC50) of 5 nM.

These data come from PMC5122887, “Identification of ER-000444793, a Cyclophilin D-independent inhibitor of mitochondrial permeability transition, using a high-throughput screen in cryopreserved mitochondria” (Scientific Reports, 2016).
